Targets include GAK (human) (UniProt O14976); DAPK1 (human) (UniProt P53355); CHUK (human) (UniProt O15111); CLK2 (human) (UniProt P49760); CLK1 (human) (UniProt P49759); PIP4K2B (human) (UniProt P78356); CSNK2A1 (human) (UniProt P68400); RIOK1 (human) (UniProt Q9BRS2); PHKG2 (human) (UniProt P15735); MAPK15 (human) (UniProt Q8TD08); RIOK3 (human) (UniProt O14730); CSNK2A2 (human) (UniProt P19784); MAP2K4 (human) (UniProt P45985); ACVR2A (human) (UniProt P27037); PIM3 (human) (UniProt Q86V86); TAOK3 (human) (UniProt Q9H2K8); TAOK1 (human) (UniProt Q7L7X3); DAPK3 (human) (UniProt O43293); TGFBR2 (human) (UniProt P37173); PIK3CG (human) (UniProt P48736); DMPK (human) (UniProt Q09013); GSK3A (human) (UniProt P49840); MKNK2 (human) (UniProt Q9HBH9); TLK1 (human) (UniProt Q9UKI8); CSNK1E (human) (UniProt P49674); TNK1 (human) (UniProt Q13470); RPS6KA2 KD2 (human) (UniProt Q15349); TNIK (human) (UniProt Q9UKE5); SRPK3 (human) (UniProt Q9UPE1).

Experiment in all cases: KINOMEscan competition binding
Holding throughout (conditions): compound 10.0 µM

Assay [1] deals with EGFR (human), P00533 [747-751 del / S ins].
Assay [2] has as its target TYK2 JH2 pseudokinase (human) (UniProt P29597).
Assay [3] has as its system EIF2AK4 KD2 (human), Q9P2K8 [S808G].
The subject of assay [4] is KIT (human), P10721 [V559D/V654A].
Assay [5] concerns FLT3 (human), P36888 [D835Y].
In assay [6] the test system is FLT3 (human), P36888 [K663Q].

Experimental findings from the kinase profiling compilation of Christmann-Franck et al. (2016) are described below.

Chain of DAPK1 (human) (P53355 whole entry, looked up): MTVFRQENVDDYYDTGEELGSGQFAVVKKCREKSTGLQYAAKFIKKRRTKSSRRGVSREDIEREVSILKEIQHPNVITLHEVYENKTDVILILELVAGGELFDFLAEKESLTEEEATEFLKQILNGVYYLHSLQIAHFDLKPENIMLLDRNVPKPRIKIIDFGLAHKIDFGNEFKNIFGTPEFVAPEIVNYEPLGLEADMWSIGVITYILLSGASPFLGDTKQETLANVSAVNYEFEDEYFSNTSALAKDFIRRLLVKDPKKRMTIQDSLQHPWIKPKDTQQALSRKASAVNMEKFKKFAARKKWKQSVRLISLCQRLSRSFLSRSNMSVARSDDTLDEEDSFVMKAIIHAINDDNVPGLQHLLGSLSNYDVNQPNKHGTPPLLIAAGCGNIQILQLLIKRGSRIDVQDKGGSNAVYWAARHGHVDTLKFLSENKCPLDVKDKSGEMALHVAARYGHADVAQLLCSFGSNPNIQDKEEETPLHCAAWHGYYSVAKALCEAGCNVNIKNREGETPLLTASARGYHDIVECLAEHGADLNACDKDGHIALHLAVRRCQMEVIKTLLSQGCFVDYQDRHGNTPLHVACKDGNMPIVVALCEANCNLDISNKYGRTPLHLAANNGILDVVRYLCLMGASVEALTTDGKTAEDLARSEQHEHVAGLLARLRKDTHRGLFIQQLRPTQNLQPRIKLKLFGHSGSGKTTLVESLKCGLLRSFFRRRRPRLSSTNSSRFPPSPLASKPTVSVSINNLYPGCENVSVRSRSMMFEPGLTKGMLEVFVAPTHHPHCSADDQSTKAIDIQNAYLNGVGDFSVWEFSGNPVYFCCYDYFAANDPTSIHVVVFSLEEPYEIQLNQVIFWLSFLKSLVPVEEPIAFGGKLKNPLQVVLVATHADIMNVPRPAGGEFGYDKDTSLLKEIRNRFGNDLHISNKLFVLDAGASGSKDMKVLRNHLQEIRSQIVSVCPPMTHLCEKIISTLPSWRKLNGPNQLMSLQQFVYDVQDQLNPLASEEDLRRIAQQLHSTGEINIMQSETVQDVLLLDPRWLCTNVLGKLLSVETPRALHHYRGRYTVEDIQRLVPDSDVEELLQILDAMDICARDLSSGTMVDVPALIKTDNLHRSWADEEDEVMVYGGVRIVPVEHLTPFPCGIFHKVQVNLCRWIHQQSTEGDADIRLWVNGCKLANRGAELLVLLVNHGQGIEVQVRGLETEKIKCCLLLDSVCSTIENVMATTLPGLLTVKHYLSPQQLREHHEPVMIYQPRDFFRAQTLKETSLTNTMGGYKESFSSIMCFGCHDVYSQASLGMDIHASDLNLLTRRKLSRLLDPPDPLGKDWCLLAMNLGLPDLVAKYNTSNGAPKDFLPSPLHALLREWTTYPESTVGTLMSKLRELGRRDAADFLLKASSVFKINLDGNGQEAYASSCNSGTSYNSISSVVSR
Chain of GAK (human) (O14976 whole entry, looked up): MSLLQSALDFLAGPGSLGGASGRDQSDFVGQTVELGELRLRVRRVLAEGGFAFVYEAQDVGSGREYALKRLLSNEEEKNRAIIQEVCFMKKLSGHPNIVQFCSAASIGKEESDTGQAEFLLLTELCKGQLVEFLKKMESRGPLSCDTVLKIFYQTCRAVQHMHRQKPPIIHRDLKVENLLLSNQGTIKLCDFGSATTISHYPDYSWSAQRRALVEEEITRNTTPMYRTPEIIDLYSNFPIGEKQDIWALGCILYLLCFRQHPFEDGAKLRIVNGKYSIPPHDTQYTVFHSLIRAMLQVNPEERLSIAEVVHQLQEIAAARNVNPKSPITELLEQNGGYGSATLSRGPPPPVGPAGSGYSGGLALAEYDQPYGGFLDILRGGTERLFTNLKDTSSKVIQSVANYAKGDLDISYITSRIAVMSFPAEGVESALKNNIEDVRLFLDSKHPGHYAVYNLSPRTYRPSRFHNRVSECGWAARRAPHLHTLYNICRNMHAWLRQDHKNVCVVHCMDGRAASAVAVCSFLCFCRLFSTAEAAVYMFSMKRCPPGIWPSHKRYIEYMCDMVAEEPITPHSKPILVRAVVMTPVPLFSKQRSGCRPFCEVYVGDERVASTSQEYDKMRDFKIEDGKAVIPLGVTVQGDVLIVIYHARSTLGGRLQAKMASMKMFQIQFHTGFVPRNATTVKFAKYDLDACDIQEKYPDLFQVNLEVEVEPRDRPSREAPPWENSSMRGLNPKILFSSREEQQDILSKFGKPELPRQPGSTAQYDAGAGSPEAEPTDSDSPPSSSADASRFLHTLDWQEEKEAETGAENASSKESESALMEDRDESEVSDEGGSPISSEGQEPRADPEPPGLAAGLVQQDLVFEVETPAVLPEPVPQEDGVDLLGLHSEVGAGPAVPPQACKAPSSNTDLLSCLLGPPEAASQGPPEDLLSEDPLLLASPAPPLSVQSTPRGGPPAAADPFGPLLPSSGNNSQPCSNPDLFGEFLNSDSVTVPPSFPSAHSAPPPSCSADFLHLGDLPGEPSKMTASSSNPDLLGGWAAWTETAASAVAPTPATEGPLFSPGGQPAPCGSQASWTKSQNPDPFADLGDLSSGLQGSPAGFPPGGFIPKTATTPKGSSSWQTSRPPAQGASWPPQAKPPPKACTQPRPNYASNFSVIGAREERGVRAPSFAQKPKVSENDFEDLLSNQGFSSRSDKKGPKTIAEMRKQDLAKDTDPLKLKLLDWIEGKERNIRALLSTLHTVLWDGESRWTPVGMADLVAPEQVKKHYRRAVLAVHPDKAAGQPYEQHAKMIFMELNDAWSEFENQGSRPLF
Chain of DAPK3 (human) (O43293 whole entry, looked up): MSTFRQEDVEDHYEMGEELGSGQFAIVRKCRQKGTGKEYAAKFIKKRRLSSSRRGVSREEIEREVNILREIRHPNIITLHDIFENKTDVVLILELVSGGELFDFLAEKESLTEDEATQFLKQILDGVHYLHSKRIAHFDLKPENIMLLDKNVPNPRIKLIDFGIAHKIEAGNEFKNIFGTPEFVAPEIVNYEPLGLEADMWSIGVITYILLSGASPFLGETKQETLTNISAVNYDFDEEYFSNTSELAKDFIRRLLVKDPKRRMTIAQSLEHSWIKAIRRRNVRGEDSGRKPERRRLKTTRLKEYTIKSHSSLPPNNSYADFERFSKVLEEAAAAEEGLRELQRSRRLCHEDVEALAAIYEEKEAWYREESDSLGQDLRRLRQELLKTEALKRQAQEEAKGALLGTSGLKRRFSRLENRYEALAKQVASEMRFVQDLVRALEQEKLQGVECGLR
Chain of CSNK2A2 (human) (P19784 whole entry, looked up): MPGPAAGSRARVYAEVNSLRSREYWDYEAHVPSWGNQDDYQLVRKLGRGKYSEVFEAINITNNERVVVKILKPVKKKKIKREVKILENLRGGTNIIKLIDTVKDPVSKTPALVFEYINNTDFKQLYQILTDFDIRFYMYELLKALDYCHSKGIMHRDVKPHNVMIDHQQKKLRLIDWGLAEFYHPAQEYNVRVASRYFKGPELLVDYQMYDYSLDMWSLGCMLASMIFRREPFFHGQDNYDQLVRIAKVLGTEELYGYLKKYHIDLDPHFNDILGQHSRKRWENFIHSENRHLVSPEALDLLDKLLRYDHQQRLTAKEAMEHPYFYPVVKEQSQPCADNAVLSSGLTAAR
Chain of ACVR2A (human) (P27037 whole entry, looked up): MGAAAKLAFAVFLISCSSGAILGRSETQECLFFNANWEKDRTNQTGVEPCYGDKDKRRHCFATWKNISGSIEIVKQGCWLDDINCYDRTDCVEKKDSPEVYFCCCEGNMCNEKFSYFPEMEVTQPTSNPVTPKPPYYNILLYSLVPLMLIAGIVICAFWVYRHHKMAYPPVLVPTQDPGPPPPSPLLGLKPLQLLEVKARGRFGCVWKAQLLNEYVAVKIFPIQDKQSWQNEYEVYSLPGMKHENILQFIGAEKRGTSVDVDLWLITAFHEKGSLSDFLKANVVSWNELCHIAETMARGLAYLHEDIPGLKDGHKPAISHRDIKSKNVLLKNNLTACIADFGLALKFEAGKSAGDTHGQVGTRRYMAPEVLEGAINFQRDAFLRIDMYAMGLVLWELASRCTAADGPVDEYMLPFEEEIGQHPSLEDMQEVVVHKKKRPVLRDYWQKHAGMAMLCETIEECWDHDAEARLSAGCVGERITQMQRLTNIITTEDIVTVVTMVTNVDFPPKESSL
Chain of MAPK15 (human) (Q8TD08 whole entry, looked up): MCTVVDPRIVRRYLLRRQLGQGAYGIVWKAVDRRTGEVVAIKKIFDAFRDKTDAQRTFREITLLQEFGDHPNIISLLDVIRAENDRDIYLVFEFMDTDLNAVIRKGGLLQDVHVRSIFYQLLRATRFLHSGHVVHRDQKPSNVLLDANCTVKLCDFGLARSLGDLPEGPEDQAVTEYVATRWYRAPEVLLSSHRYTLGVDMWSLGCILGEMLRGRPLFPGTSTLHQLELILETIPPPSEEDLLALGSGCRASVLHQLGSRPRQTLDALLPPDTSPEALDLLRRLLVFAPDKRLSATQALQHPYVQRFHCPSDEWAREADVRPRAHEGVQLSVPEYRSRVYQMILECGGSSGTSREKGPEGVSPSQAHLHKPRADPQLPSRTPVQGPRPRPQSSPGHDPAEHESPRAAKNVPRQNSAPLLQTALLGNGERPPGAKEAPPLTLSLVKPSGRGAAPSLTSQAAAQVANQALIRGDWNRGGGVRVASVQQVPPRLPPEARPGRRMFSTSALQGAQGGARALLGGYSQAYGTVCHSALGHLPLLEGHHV

For the compound `N=C1NC(=O)/C(=C/c2ccc(-c3ccccc3O)o2)S1`, the kinase still bound, per cent of control at GAK (human) came to 7.6%; at DAPK1 (human), 7.6%; at CHUK (human), 9.5%; at CLK2 (human), 0.9%; on CLK1 (human) it was 3.4%; on PIP4K2B (human), 28%. The kinase still bound, per cent of control worked out at 9.9% on CSNK2A1 (human); 21% on RIOK1 (human); 16% on PHKG2 (human); 0.3% on MAPK15 (human); 20% at RIOK3 (human); 17% at CSNK2A2 (human). For the same compound, the kinase still bound, per cent of control on MAP2K4 (human) turned out to be 16%; at ACVR2A (human), 31%; on PIM3 (human), 2.1%; on TAOK3 (human) it was 0.05%; on TAOK1 (human), 0%; on DAPK3 (human) it was 7.4%. Moreover, the kinase still bound, per cent of control worked out at 3.6% on TGFBR2 (human) and 31% in assay [1].

For the compound `N=C1NC(=O)/C(=C/c2ccc(-c3ccc(C(N)=O)cc3O)o2)S1`, the kinase still bound, per cent of control on GAK (human) was 6.6%; at DAPK1 (human), 9.7%; on CHUK (human), 16%; at CLK2 (human), 19%; on CLK1 (human), 0.55%; on CSNK2A1 (human), 5.8%. Moreover, the kinase still bound, per cent of control at MAPK15 (human) came to 0.1%; on PIK3CG (human), 2.6%; on DMPK (human) it was 14%; on CSNK2A2 (human) it was 6.7%; on GSK3A (human), 17%; in assay [2], 0.25%. In addition, the kinase still bound, per cent of control on PIM3 (human) was 5.4%; in [3] it was 16%; at TAOK3 (human), 13%; on TAOK1 (human), 2.2%; at DAPK3 (human), 25%; on TGFBR2 (human), 9%.

Take `N=C1NC(=O)/C(=C/c2ccc(-c3csc4ccccc34)o2)S1`: the kinase still bound, per cent of control at DAPK1 (human) amounted to 15%; on MKNK2 (human) it was 34%; on CLK2 (human), 15%; at TLK1 (human), 11%; on CLK1 (human) it was 20%; on PIP4K2B (human), 26%. The kinase still bound, per cent of control at CSNK2A1 (human) was found to be 12%; in [4], 24%; on CSNK1E (human) it was 22%; at MAPK15 (human), 7.6%; on TNK1 (human) it was 31%; in assay [5], 19%. Besides, the kinase still bound, per cent of control on CSNK2A2 (human) was 11%; at GSK3A (human) it was 0%; at ACVR2A (human), 10%; in [2] it was 8.5%; on PIM3 (human) it was 5.4%; in assay [3] it was 33%. In addition, the kinase still bound, per cent of control at TAOK1 (human) is 18%; at DAPK3 (human), 29%; at TGFBR2 (human), 2.4%; at RPS6KA2 KD2 (human) it was 21%.

On to `N=C1NC(=O)/C(=C/c2ccc(-c3ccc(F)cc3O)o2)S1`, for which the kinase still bound, per cent of control stood at 7.6% at GAK (human); 8.3% at DAPK1 (human); 15% on CHUK (human); 2.8% on CLK2 (human); 1.3% at CLK1 (human); 23% on RIOK1 (human). For the same compound, the kinase still bound, per cent of control came out at 15% at PHKG2 (human); 0.1% on MAPK15 (human); 0% at PIK3CG (human); 15% on CSNK2A2 (human); 31% in assay [2]; 4.7% on PIM3 (human). Also, the kinase still bound, per cent of control at TAOK3 (human) stood at 0.2%; on TAOK1 (human), 0%; on DAPK3 (human) it was 8.6%; at TGFBR2 (human), 5%; in assay [1], 16%.

On to `CS(=O)(=O)Nc1ccc(-c2ncc(/C=C3\SC(=N)NC3=O)s2)cc1`, for which the kinase still bound, per cent of control on GAK (human) stood at 2.8%; on DAPK1 (human), 4%; at MKNK2 (human), 13%; on RIOK1 (human) it was 27%; on TNIK (human) it was 16%; in assay [5] it was 12%. Besides, the kinase still bound, per cent of control at ACVR2A (human) is 18%; at PIM3 (human), 2%; at DAPK3 (human) it was 6.9%; on TGFBR2 (human) it was 12%.

On to `N=C1NC(=O)/C(=C/c2c[nH]c(=O)c(-c3ccc(N4CCNCC4)nc3)c2)S1`, for which the kinase still bound, per cent of control at GAK (human) turned out to be 30%; on DAPK1 (human), 2.7%; at CLK2 (human), 2.8%; at CLK1 (human), 3.5%; at PIP4K2B (human), 8.4%; in assay [6], 33%. Further, the kinase still bound, per cent of control on RIOK1 (human) was 10%; on SRPK3 (human), 23%; at TNIK (human), 18%; at MAPK15 (human) it was 4%; at PIK3CG (human) it was 33%; on RIOK3 (human) it was 9.4%. In addition, the kinase still bound, per cent of control was 18% at DMPK (human); 23% in assay [5]; 32% on CSNK2A2 (human); 8% at PIM3 (human); 1.4% in assay [3]; 32% on TAOK1 (human). The kinase still bound, per cent of control at DAPK3 (human) is 4.7%; on TGFBR2 (human) it was 33%; at RPS6KA2 KD2 (human) it was 33%.
